Test results as given in article PMC10046037, “GABRG2 Variants Associated with Febrile Seizures” (Biomolecules, 2023).

Target: T1, α1β3γ2 GABAA receptor, γ2S325L variant (Homo sapiens, UniProt P14867+P18507+P28472, S325L)
T1 construct: expressed in transfected cells; host or cells: HEK293T
T1 sequence (P14867 28-456): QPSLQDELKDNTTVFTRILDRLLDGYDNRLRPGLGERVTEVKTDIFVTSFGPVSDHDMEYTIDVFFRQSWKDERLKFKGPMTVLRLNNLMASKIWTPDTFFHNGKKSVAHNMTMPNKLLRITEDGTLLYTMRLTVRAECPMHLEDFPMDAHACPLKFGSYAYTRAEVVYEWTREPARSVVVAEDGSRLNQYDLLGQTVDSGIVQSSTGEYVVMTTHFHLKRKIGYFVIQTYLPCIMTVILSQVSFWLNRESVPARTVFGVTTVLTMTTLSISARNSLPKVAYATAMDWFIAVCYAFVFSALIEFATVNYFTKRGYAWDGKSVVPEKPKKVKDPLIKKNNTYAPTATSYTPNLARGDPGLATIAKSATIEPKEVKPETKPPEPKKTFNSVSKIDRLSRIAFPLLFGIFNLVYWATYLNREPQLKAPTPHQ
T1 sequence (P28472 26-473 isoform P28472-2): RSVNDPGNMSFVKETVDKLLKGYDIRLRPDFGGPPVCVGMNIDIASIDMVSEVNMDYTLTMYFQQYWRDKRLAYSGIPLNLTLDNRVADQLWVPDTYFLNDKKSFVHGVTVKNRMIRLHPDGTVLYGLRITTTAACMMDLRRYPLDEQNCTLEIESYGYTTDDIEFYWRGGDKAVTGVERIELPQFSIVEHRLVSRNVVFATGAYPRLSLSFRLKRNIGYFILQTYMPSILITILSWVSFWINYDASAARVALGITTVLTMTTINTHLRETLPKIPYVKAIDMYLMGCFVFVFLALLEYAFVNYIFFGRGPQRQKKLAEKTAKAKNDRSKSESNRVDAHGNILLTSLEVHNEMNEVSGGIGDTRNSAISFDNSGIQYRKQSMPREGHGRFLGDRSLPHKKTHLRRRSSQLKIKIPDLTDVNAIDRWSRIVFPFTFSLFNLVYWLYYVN
T1 sequence (P18507 40-475 S325L): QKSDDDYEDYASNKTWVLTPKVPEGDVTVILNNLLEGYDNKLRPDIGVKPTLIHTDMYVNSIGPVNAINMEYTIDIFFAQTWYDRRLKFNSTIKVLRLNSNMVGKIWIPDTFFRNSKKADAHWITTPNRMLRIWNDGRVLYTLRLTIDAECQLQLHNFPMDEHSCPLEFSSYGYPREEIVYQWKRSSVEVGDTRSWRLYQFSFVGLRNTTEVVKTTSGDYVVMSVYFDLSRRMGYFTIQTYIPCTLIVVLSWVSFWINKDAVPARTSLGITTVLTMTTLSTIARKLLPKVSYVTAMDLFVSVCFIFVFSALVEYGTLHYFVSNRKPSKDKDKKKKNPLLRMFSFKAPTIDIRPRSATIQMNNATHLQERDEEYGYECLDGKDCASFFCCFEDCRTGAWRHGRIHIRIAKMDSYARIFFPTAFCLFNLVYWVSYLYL
Test: Automated patch clamp of GABA-elicited currents (SyncroPatch 384PE), γ2S325L
Format: cell-based
Settings: mean
Procedure: The coding sequences of human α1 (GABRA1, NM_000806), β3 (GABRB3, NM_021912), and γ2 (GABRG2, NM_198904.2) GABAAR subunits were subcloned into the pcDNA3.1 expression vectors (Invitrogen, Waltham, MA, USA).
HEK293T cells (ATCC, CRL-11268) were cultured at 37 °C in a humidified 5% CO2 incubator and maintained in Dulbecco’s modified Eagle’s medium (Invitrogen) supplemented with 10% fetal bovine serum (Life Technologies, Carlsbad, CA, USA), and 100 IU/mL of penicillin/streptomycin (Life Technologies). For the expression experiments, 4 × 10^5 cells were transfected using polyethylenimine (PEI) reagent (40 kD, Polysciences, Warrington, PA, USA) at a DNA: to transfection reagent ratio of 1:2.5 and harvested 36 h after transfection. To express WT and variant α1β3γ2 receptors, a total of 3 µg of α1, β3, and γ2 (WT or mutant) subunit cDNAs were transfected at a ratio of 1:1:1 into 60 mm culture dishes. For the mock-transfected condition, an empty pcDNA3.1 vector was added for a final cDNA transfection amount of 3 μg. For the electrophysiology experiments, 2.5 × 10^5 cells were plated in 100 mm culture dishes and transfected after 24 h with 3 μg of cDNA of each α1, β3, γ2 (wild-type or mutant) subunit, using X-tremeGENE HP DNA transfection Reagent (Roche Diagnostics, Basel, Switzerland), following the manufacturer’s protocol. Recordings were obtained forty-eight hours after transfection.
Whole-cell patch clamp recordings were conducted according to the manufacturer’s standard procedure for the SyncroPatch 384 [31]. Whole-cell voltage-clamp recordings were performed at room temperature on HEK293T cells 48 h after transfection with GABAAR subunits, using the SyncroPatch 384PE (Nanion Technologies, Munich, Germany). Cells, at a concentration of 400,000 cells/mL, were harvested in suspension in external solution containing 140 mM of NaCl, 2 mM of CaCl2, 4 mM of KCl, 1 mM of MgCl2, 5 mM of glucose, and 10 mM of HEPES (pH 7.4 with NaOH, 298 mOsm). The cells were loaded in a multi-hole (4 holes per well) 384-well Nanion patch clamp (NPC) chip with a thick borosilicate glass bottom and an average resistance pore size of […]. Built-in electrophysiological protocols were used, and the data were digitized using PatchControl 384 (Nanion Technologies) application. Using PatchControl 384, electrophysiological parameters, such as seal resistance, capacitance, and series resistance, were determined for each well after the application of a test pulse, and subsequently monitored over time. […] The currents were normalized to the maximal response of each well, and the concentration–response curves were calculated from single-point additions. The EC50 values for each variant or wild-type receptor were calculated across multiple wells for each experimental condition.

Deactivation (1 mM GABA for 5 ms, HEK293T, -80 mV): 307.7 ms
IMAX (maximal GABA-evoked peak current) (1 mM GABA for 5 ms, HEK293T): 0.78 nA
IMAX variant/IMAX WT (1 mM GABA): 39.07%
Rise Time (10–90% rise time, 1 mM GABA for 5 ms, HEK293T): 68.01 ms
SMILES: NCCCC(=O)O [GABA, γ-aminobutyric acid]
